The text below walks through data of US7109329B2, “Neurologically active compounds and compounds with multiple activities” (priority 1988, dated 2006).

Series [1] in a line: Formation of scar tissue at the trauma site. It is filed as in vivo. The source says:
It is believed that these mixed agonists interfere with triple helix formation in the synthesis of collagen protein, thus preventing or reducing the formation of hard scar tissue at the trauma site.
The purpose of liquid nitrogen is to reduce the structural integrity of the collagen laden, glial scar tissue, by freezing and defrosting. Collagenase then initiates a debridgement of the scar without attacking the nervous and osseous tissue. If required, streptokinase, or alteplase, both plasminogen activators can also be used to bring about a complete debridgement. In addition to 3-amino-propionitrile (a latherogen), 5-fluorodeoxyuridine and dehydroproline can be used to arrest further glial and fibroblastic invasion of the scar region, respectively.

Series [2] in a line: Anesthesia in rats judged by reflexes and wakefulness. Particulars: for anesthesia judged by reflexes (patellar, urethro-anal, startle, corneal etc.) after 30 minutes: room temperature 21° C., G 12 mg/kg, D 6 mg/kg or combination; for anesthesia judged by reflexes (patellar, urethro-anal, startle, corneal etc.) after 30 minutes / reflexes tested (as in Examples 48–53) / appearance of ears and digits of anesthetized animals / survival at the given doses: I.P.; for reflexes tested (as in Examples 48–53): room temperature 19.4° C.; for reflexes tested (as in Examples 48–53) / appearance of ears and digits of anesthetized animals: guanabenz acetate 12 mg/kg; for reflexes tested (as in Examples 48–53) / appearance of ears and digits of anesthetized animals / survival at the given doses: pentabarbital 25 mg/kg, ketamine 80 mg/kg.

The conditions of series [3]: for core temperature allowed to fall to: 4 mg intraperitoneally, ambient 21° C., before transfer to 42° C. room (guanabenz: after about 15 minutes); for core temperature twenty minutes after injection: room temperature 21° C., G 12 mg/kg, D 6 mg/kg or combination; for core temperature twenty minutes after injection / mean core temperature one hour after injection: I.P.; for mean core temperature one hour after injection: room temperature 19.4° C., guanabenz acetate 12 mg/kg, pentabarbital 25 mg/kg, ketamine 80 mg/kg. The procedure: Room temperature was 21.5° C.
The core temperatures of the rats were allowed to fall to approximately 30° C., after about 15 minutes. At that time, the rats were placed in a temperature controlled room maintained at 42° C., together with 2 control rats treated only with the dextrose solution.
The core temperatures of the rats were allowed to fall to approximately 30° C. At that time, the rats were placed in a temperature controlled room maintained at 42° C., together with two control rats treated only with the dextrose solution.

Series [4] in a line: Core temperature and behaviour of treated rats in a room at 42° C. It is filed as in vivo, rat. The conditions noted are these: 4 mg intraperitoneally; for core temperature in the 42° C. room: placed at core temperature about 30° C.
The nature of series [5]: Activities and properties of the compounds (Table III codes listed as Specific Properties in Table IV). The conditions noted are these: codes of Table III; higher levels of activity. The source says:
Certain of the compounds produce a profound hypothermia, but without anesthetizing. […] Table III, following, sets forth a list of the other properties of these guanidino compounds, which arise from their alpha-adrenergic agonist activity, combined with any inherent activity of the reactants chosen to achieve the final compound.
Except for items numbered 22 and 24–28 in Table III, substantially all of the guanidino compounds of this invention, as a result of their structure-activity relationship, are potent with respect to all of the above activities. However, as would be expected, various compounds have different, higher levels of, activities and properties which are listed as “Specific Properties”, with the Compounds numbered, in Table IV, below, according to the numbers in Tables I and II.

Series [6] can be described thus: Reversal of guanabenz-induced anesthesia and hypothermia by antagonists. It is filed as in vivo, rat.
Protocol: The effect can also be partially reversed, or reversed in stages, if desired, by administering several smaller aliquots of the antagonist.
Room temperature was 21.5° C. […] The control rats, injected only with the carrier dextrose solution, maintained a relatively constant temperature during the entire test period under identical conditions of the test.
A short description of series [7]: Electrical tail stimulation, vocalization threshold (anesthesia) in rats. It is filed as in vivo, rat. Particulars: guanabenz-anesthetized rats, 40 mgs. aminophylline. The procedure: A fifth rat was treated with merely an equal amount of the dextrose solution without guanabenz acetate. The rats were subjected to an electrical tail stimulation, by electrodes attached to their tails, to determine the point of positive (threshold) vocalization.
The normal vocalization threshold, and the point at which the control rat vocalized was approximately 7 volts. […] To bring the rats out of anesthesia, the rats were then injected with 40 mgs. of aminophylline, also in 1 ml of a 5% aqueous dextrose solution. […] The normal threshold for vocalization was reestablished, as there was no vocalization at 6 volts following recovery from anesthesia.
The rats were maintained under anaesthesia for a period of 50 minutes before injection of the aminophylline.

Series [8] in a line: Intravenous anesthesia of a 70 kg mammal. The format is in vivo. Particulars: 70 kg mammal, 20 mg aminophylline intravenous over five minutes. The procedure: Thereafter, an intravenous injection containing 20 mg of aminophylline is administered over a period of five minutes. The large mammal is fully awakened within about 20 minutes, appearing alert and refreshed.
The period of time required to fully reverse the anesthesia can be increased or decreased by proportionally changing the amount of the antagonist. After metabolism of guanabenz, the mammal will spontaneously awaken, within about three to six hours after the I.V. drip is discontinued.

Setting [9] is: 4 mg I.P., room temperature 21.5° C.
Setting [10] is: guanabenz-treated rats (4 mg I.P.), Yohimbine 10 mg I.P.

On to `N=C(N)NN` [Aminoguanidine], for which the “effect on formation of the scar” value in series [1] was “interfere with formation of the scar”.
`COc1cc(C=NNc2ncc[nH]2)cc(OC)c1OC` [Compound 13, Melazine]: the “anesthetic state of the treated rats” value in series [2] (setting [9]) was “remained awake”. Also, in series [3] (setting [9]), the mean intraperitoneal temperature was 30.2 °C; the “temperatures of the liver and the kidneys” value is around 32.7 °C. For the same compound, in series [3] (eight rats each, 4 mg I.P. in 5% dextrose, room temperature 21.5° C., normal value 36.5° C.), the “core temperature (colonic measurement) after drop” value turned out to be 21.5 °C.
With `Clc1cccc(Cl)c1C=Nc1nc(N=Cc2c(Cl)cccc2Cl)nc(N=Cc2c(Cl)cccc2Cl)n1` [Compound 18, 2,4,6-Tris (2,6-dichlorobenzylideneamino)-1,3,5-s-Triazine], in series [4], the “state of treated rats in the 42° C. room” value is listed as “remained calm, but active” and the “core temperature in the 42° C. room” value turned out to be 30 °C. Further, in series [3], the “core temperature allowed to fall to” value was “approximately 30 °C”.
With `Cn1c(=O)c2c(ncn2CC(=O)NC(=O)c2ccc(C(=N)N)cc2)n(C)c1=O` [Compound 97, 4-(Amidino)-N-(theophylline-7-acetyl)-benzamide], the “Specific Properties” value in series [5] is 3, 2, 2, antagonist, 12. The “antagonism of both the hypothermic and anesthetic effects of guanidino compounds” value in series [6] (rat, in vivo) was “reverse both the hypothermic and anesthetic effects”.
Regarding `Cn1c(=O)c2[nH]cnc2n(C)c1=O` [aminophylline], in series [7] (by 8 minutes after injection), the “voltage at which vocalization was present” value amounted to 7 volts. In series [7] (within 6 minutes after injection), the “voltage at which vocalization returned” value was determined as 12 volts. The “time until fully awakened from guanabenz anesthesia” value in series [8] was at most 20 min. Moreover, in series [6] (setting [10]), the “effect on guanabenz-induced anesthesia” value is reported as “caused them to awaken” and the “effect on guanabenz-induced hypothermia (body temperature)” value is “practically no effect on body temperature”. In series [6] (three melazine-treated rats), the “effect of injection on melazine-treated rats” value is reported as “no discernible effect”.
Turning to `Clc1cccc(Cl)c1N=C1NCCN1` [clonidine], the “effect on formation of the scar” value in series [1] is given as “interfere with formation of the scar”.
In the case of `CN1C(=O)CN=C(c2ccccc2)c2cc(Cl)ccc21` [diazepam], the “anesthesia judged by reflexes (patellar, urethro-anal, startle, corneal etc.) after 30 minutes” value in series [2] was “all such reflexes were present”. Further, the “core temperature twenty minutes after injection” value in series [3] was “no change”.
Turning to `N=C(N)N/N=C/c1c(Cl)cccc1Cl` [guanabenz acetate], in series [4], the “state of treated rats in the 42° C. room” value is recorded as “remained under anesthesia” and the “core temperature in the 42° C. room” value turned out to be 30 °C. Also, in series [2], the “reflexes tested (as in Examples 48–53)” value is on record as “disappeared” and the “anesthesia judged by reflexes (patellar, urethro-anal, startle, corneal etc.) after 30 minutes” value is reported as “profound anesthesia”. Also, in series [3], the “core temperature allowed to fall to” value was “approximately 30 °C”, the “mean core temperature one hour after injection” value (from here on “mean core temperature one hour”) was 24.3 °C and the “core temperature twenty minutes after injection” value was “about 31 °C”.
Regarding `CNC1(c2ccccc2Cl)CCCCC1=O` (stereo not shown) [ketamine], in series [2], the “appearance of ears and digits of anesthetized animals” value is listed as “semi-cyanotic”; the “survival at the given doses” value is recorded as “did not survive”; the “reflexes tested (as in Examples 48–53)” value is “disappeared”. For the same compound, in series [3], the “mean core temperature one hour” value came out at 34.5 °C.
Turning to `CCCC(C)C1(CC)C(=O)NC(=O)NC1=O` (stereo not shown) [pentabarbital], in series [2], the “appearance of ears and digits of anesthetized animals” value was “semi-cyanotic”; the “survival at the given doses” value is given as “did not survive”; the “reflexes tested (as in Examples 48–53)” value was “disappeared”. Moreover, the “mean core temperature one hour” value in series [3] stood at 29.3 °C.
